Measured values from patent US20100298141A1, “SUBSTITUTED PYRIDINE N-OXIDE HERBICIDES” (E. I. DU PONT DE NEMOURS AND COMPANY, priority 2007, published 2010).

Experiments:
[1] = tested on: windgrass; test: Test C pre-/postemergence test; type: in vivo, Apera spica-venti; settings: Postemergence; for Plant response rating, Windgrass: scale 0 to 100, 0 no effect, 100 complete control
[2] = tested on: quackgrass; test: Test F preemergence test; type: in vivo, Elytrigia repens; settings: scale 0 to 100
Outline: (§1)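 Test chemicals were formulated in a non-phytotoxic solvent mixture with surfactant and applied preemergence to planted seeds or postemergence to sugarcane plants. Plants were kept in a greenhouse for 14 to 21 days, then visually evaluated against controls.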

[3] = tested on: common groundsel; test: Test F preemergence test; type: in vivo, Senecio vulgaris; settings: scale 0 to 100
Outline: as §1

[4] = tested on: common purslane; test: Test F preemergence test; type: in vivo, Portulaca oleracea; settings: scale 0 to 100
Outline: as §1

[5] = tested on: southern sandbur; test: Test F preemergence test; type: in vivo, Cenchrus echinatus; settings: scale 0 to 100
Outline: as §1

[6] = tested on: mustard; test: Test F preemergence test; type: in vivo, Brassica nigra; settings: scale 0 to 100
Outline: as §1

[7] = tested on: dallisgrass; test: Test F preemergence test; type: in vivo, Paspalum dilatatum; settings: scale 0 to 100
Outline: as §1

[8] = tested on: green foxtail; test: Test F preemergence test; type: in vivo, Setaria viridis; settings: scale 0 to 100
Outline: as §1

[9] = tested on: common mallow; test: Test F preemergence test; type: in vivo, Malva sylvestris; settings: scale 0 to 100
Outline: as §1

[10] = tested on: barnyardgrass; test: Test F preemergence test; type: in vivo, Echinochloa crus-galli
Outline: as §1

[11] = tested on: itchgrass; test: Test F preemergence test; type: in vivo, Rottboellia cochinchinensis; settings: scale 0 to 100
Outline: as §1

[12] = tested on: field bindweed; test: Test F preemergence test; type: in vivo, Convolvulus arvensis; settings: scale 0 to 100
Outline: as §1

[13] = tested on: prickly sida; test: Test F preemergence test; type: in vivo, Sida spinosa; settings: scale 0 to 100
Outline: as §1

[14] = tested on: guineagrass; test: Test F preemergence test; type: in vivo, Panicum maximum; settings: scale 0 to 100
Outline: as §1

CCn1nc(C(F)(F)F)c(CS(=O)(=O)c2cc(C)cc[n+]2[O-])c1OCC(F)(F)F [Compound 64]
Plant response rating (0 to 100), Windgrass ([1]; 31 g ai/ha): 0
Plant response rating (0 to 100), Windgrass ([1]; 62 g ai/ha): 90
Plant response rating, Windgrass ([1]; 125 g ai/ha): 98
Plant response rating, Windgrass ([1]; 250 g ai/ha): 100
Plant response rating, Quackgrass ([2]; 16 g ai/ha, preemergence): 40
Quackgrass plant response rating ([2]; 62 g ai/ha, Preemergence): 95
Quackgrass plant response rating ([2]; 125 g ai/ha, preemergence): 95
Plant response rating, Quackgrass ([2]; Preemergence, 31 g ai/ha): 75
Plant response rating, Groundsel ([3]; 16 g ai/ha, preemergence): 0
Groundsel plant response rating ([3]; 62 g ai/ha, Preemergence): 15
Groundsel plant response rating ([3]; 125 g ai/ha, preemergence): 80
Plant response rating, Groundsel ([3]; Preemergence, 31 g ai/ha): 0
Plant response rating, Purslane ([4]; 16 g ai/ha, preemergence): 0
Purslane plant response rating ([4]; 62 g ai/ha, Preemergence): 30
Purslane plant response rating ([4]; 125 g ai/ha, preemergence): 60
Plant response rating, Purslane ([4]; Preemergence, 31 g ai/ha): 10
Plant response rating, Sandbur ([5]; 16 g ai/ha, preemergence): 25
Sandbur plant response rating ([5]; 125 g ai/ha, preemergence): 100
Plant response rating, Sandbur ([5]; Preemergence, 62 g ai/ha): 80
Plant response rating, Sandbur ([5]; Preemergence, 31 g ai/ha): 80
Plant response rating, Black Mustard ([6]; 16 g ai/ha, preemergence): 0
Black Mustard plant response rating ([6]; 62 g ai/ha, Preemergence): 80
Black Mustard plant response rating ([6]; 125 g ai/ha, preemergence): 90
Plant response rating, Black Mustard ([6]; Preemergence, 31 g ai/ha): 0
Plant response rating, Dallisgrass ([7]; 16 g ai/ha, preemergence): 0
Dallisgrass plant response rating ([7]; 62 g ai/ha, Preemergence): 70
Dallisgrass plant response rating ([7]; 125 g ai/ha, preemergence): 90
Plant response rating, Dallisgrass ([7]; Preemergence, 31 g ai/ha): 35
Plant response rating, Foxtail, Green ([8]; 16 g ai/ha, preemergence): 15
Foxtail, Green plant response rating ([8]; 62 g ai/ha, Preemergence): 95
Foxtail, Green plant response rating ([8]; 125 g ai/ha, preemergence): 100
Plant response rating, Foxtail, Green ([8]; Preemergence, 31 g ai/ha): 60
Plant response rating, Mallow ([9]; 16 g ai/ha, preemergence): 0
Mallow plant response rating ([9]; 62 g ai/ha, Preemergence): 75
Mallow plant response rating ([9]; 125 g ai/ha, preemergence): 100
Plant response rating, Mallow ([9]; Preemergence, 31 g ai/ha): 35
Plant response rating, Barnyardgrass ([10]; 16 g ai/ha, preemergence, scale 0 to 100 (0 no effect, 100 complete control)): 65
Barnyardgrass plant response rating ([10]; 62 g ai/ha, Preemergence, scale 0 to 100): 100
Barnyardgrass plant response rating ([10]; 125 g ai/ha, preemergence, scale 0 to 100): 100
Plant response rating, Barnyardgrass ([10]; Preemergence, 31 g ai/ha, scale 0 to 100): 80
Plant response rating, Itchgrass ([11]; 16 g ai/ha, preemergence): 0
Itchgrass plant response rating ([11]; 62 g ai/ha, Preemergence): 30
Itchgrass plant response rating ([11]; 125 g ai/ha, preemergence): 75
Plant response rating, Itchgrass ([11]; Preemergence, 31 g ai/ha): 30
Plant response rating, Field Bindweed ([12]; 16 g ai/ha, preemergence): 0
Field Bindweed plant response rating ([12]; 62 g ai/ha, Preemergence): 0
Field Bindweed plant response rating ([12]; 125 g ai/ha, preemergence): 40
Plant response rating, Field Bindweed ([12]; Preemergence, 31 g ai/ha): 0
Plant response rating, Prickly Sida ([13]; 16 g ai/ha, preemergence): 0
Prickly Sida plant response rating ([13]; 62 g ai/ha, Preemergence): 30
Prickly Sida plant response rating ([13]; 125 g ai/ha, preemergence): 75
Plant response rating, Prickly Sida ([13]; Preemergence, 31 g ai/ha): 0
Plant response rating, Guineagrass ([14]; 16 g ai/ha, preemergence): 80
Guineagrass plant response rating ([14]; 62 g ai/ha, Preemergence): 100
Guineagrass plant response rating ([14]; 125 g ai/ha, preemergence): 100
Plant response rating, Guineagrass ([14]; Preemergence, 31 g ai/ha): 98
